Test results published in patent US20090093420A1, “PROCESSES FOR THE PREPARATION OF AZITHROMYCIN” (WOCKHARDT LIMITED, priority 2006, published 2009).

Columns and labels:
[1] = accelerated stability study of anhydrous azithromycin, storage at 40±2° C. at 75±5% relative humidity; assay type: physicochemical
[2] = stability study of anhydrous azithromycin, normal storage at 25±2° C. at 60±5% relative humidity; assay type: physicochemical
[3] = after 3 months of storage at 40±2° C. at 75±5% relative humidity
[4] = after 12 months of storage at 25±2° C. at 60±5% relative humidity

With `CCC1OC(=O)C(C)C(O[C@H]2C[C@@](C)(OC)[C@@H](O)C(C)O2)C(C)[C@@H](OC2OC(C)CC(N(C)C)[C@H]2O)[C@@](C)(O)C[C@@H](C)CN(C)[C@H](C)[C@@H](O)[C@]1(C)O` (stereo partly drawn) [anhydrous azithromycin, (2R,3S,4R,5R,5R,10R,11R,12S,13S,14R)-13-[(2,6-dideoxy-3-C-methyl-3-O-methyl-a-L-ribo-hexopyranosyl)oxy]-2-ethyl-3,4,10-trihydroxy-3,5,6,8,10,12,14-heptamethyl-11-[[3,4,6-trideoxy-3-(dimethylamino)-b-D-xylo-hexopyranosyl]oxy]-1-oxa-6-azacyclopentadecan-15-one] the “time for which the form is stable” value ([1]; accelerated stability studies) was “more than 3 months”, the “moisture content after storage” value [1, 3] was ≤ 0.6% and the “purity by HPLC after storage” value [1, 3] was “more than 98%”. The “change in the related substance content on storage” value ([1]; stored at 40±2° C. at 75±5% relative humidity) was “no change”, the “moisture content after storage” value [2, 4] was ≤ 0.6% and the “purity by HPLC after storage” value [2, 4] was “more than 99%”. The “time for which the form is stable” value ([2]; normal stability studies) was “more than 18 months” and the “change in the related substance content on storage” value ([2]; stored at 25±2° C. at 60±5% relative humidity) was “no change”.
